# Assay: Antagonist activity at human CCR1 in THP1 cells assessed as inhibition of MIP-1-alpha-induced chemotaxis after 3 hrs
row,IC50 [µM],SMILES
1,0.44,"COc1ccc(NC(=O)N2CCC[C@@H]2C(=O)N(C)Cc2ccc(Cl)cc2)cc1 [(R)-N2-(4-Chlorobenzyl)-N1-(4-methoxyphenyl)-N2-methylpyrrolidine-1,2-dicarboxamide]"
2,0.006,"Cc1cc(C(F)(F)F)cc(C)c1NC(=O)N1CCC[C@@H]1C(=O)N(C)Cc1ccc(Cl)cc1 [(R)-N2-(4-Chlorobenzyl)-N1-[2,6-dimethyl-4-(trifluoromethyl)phenyl]-N2-methylpyrrolidine-1,2-dicarboxamide]"
3,0.035,"CN(Cc1ccc(Cl)cc1)C(=O)[C@H]1CCCN1C(=O)Nc1ccc(C(F)(F)F)cc1Cl [(R)-N2-(4-Chlorobenzyl)-N1-[2-chloro-4-(trifluoromethyl)phenyl]-N2-methylpyrrolidine-1,2-dicarboxamide]"
4,0.016,"Cc1cc(C(F)(F)F)ccc1NC(=O)N1CCC[C@@H]1C(=O)N(C)Cc1ccc(Cl)cc1 [(R)-N2-(4-Chlorobenzyl)-N2-methyl-N1-[2-methyl-4-(trifluoromethyl)phenyl]pyrrolidine-1,2-dicarboxamide]"
